Usually IC50 stands for the concentration that inhibits the measured activity by half.

The results in this text go back to US9085576B2 (AMGEN INC., priority 2013, dated 2015).

The target of test [1] is Beta Secretase enzyme (BACE) (Homo sapiens (Human), UniProt P56817). In words: In vitro enzymatic BACE FRET assay. Format: biochemical. Particulars: read-out: BACE1 Enzyme assay IC50.
The next test has as its target Cathepsin D (Cat D) (Homo sapiens (Human), UniProt P07339). Kind of test: In vitro enzymatic Cathepsin D (Cat D) FRET assay. Format: biochemical. Particulars: read-out: CatD IC50.
For a further test, the target named is BACE (Homo sapiens (Human), UniProt P56817). Kind of test: In vitro BACE cell-based assay (Aβ40 in conditioned medium, sandwich ELISA). A general note: ELISA stands for enzyme-linked immunosorbent assay.
Chain of BACE (P56817 46-501, species assumed): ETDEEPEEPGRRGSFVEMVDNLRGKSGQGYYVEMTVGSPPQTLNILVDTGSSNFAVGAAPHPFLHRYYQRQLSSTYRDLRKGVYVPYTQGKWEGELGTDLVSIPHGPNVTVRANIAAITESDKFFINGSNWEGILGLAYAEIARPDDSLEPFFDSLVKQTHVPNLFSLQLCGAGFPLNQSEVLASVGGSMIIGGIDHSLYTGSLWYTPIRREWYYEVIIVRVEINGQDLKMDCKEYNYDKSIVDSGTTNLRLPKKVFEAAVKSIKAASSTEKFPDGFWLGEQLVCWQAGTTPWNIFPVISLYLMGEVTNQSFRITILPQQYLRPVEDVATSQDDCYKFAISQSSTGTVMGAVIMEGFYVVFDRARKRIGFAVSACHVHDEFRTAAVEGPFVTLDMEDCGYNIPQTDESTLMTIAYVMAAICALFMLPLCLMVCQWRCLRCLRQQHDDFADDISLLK

Chain of Cathepsin D (Cat D) (P07339 65-412, species assumed): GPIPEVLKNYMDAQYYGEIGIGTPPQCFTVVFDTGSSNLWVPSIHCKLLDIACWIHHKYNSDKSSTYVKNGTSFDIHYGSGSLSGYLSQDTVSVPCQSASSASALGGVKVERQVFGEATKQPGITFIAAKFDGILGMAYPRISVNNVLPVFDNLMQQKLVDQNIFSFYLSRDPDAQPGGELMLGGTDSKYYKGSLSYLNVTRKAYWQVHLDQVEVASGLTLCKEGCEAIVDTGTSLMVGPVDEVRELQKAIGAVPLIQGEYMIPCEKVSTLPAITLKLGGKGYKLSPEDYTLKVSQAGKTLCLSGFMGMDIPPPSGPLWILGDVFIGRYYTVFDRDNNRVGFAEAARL
Chain of Beta Secretase enzyme (BACE) (P56817 46-501): as the sequence (P56817 46-501, species assumed) above
Experimental for Cathepsin D (Cat D): In Vitro Enzymatic Cathepsin D (Cat D) FRET (Fluorescence Resonance Energy Transfer) Assay
Recombinant Cat D was expressed in CHO cells. The assay buffer for CathepsinD is 0.05 M citrate pH 3.5, 10% DMSO final, 5 mM CHAPS. […] The assays are effectively started by the addition of different FRET substrates (20 nM for Cat D) and the combination is incubated for one hour. The FRET assay is terminated with by addition of Tris buffer, which raises the pH to neutrality, and the fluorescence is determined. […] Proteolytic cleavage of the FRET substrate releases quenching of fluorescence (Cat D excitation 500 nm and emission 580 nm).

`COc1ccc(C(=O)Nc2ccc(F)c([C@@]3(CF)N=C(N)O[C@@H]4C[C@@H]43)c2)nc1` [Example 195, N-(3-((1R,5S,6R)-3-amino-5-(fluoromethyl)-2-oxa-4-azabicyclo[4.1.0]hept-3-en-5-yl)-4-fluorophenyl)-5-methoxypicolinamide]: the IC50 in test [1] amounted to 0.124 µM; on Cathepsin D (Cat D), 759 µM; at BACE, 0.0156 µM.

For `Cc1cc(C#N)cnc1C(=O)Nc1ccc(F)c([C@@]2(CF)N=C(N)O[C@@H]3C[C@@H]32)c1` [Example 196, N-(3-((1R,5S,6R)-3-amino-5-(fluoromethyl)-2-oxa-4-azabicyclo[4.1.0]hept-3-en-5-yl)-4-fluorophenyl)-5-cyano-3-methylpicolinamide], the half-maximal inhibitory concentration (IC50) in test [1] amounted to 0.0324 µM; at Cathepsin D (Cat D), 703 µM; at BACE, 0.009 µM.

For `C#CCOc1cnc(C(=O)Nc2ccc(F)c([C@@]3(CF)N=C(N)O[C@@H]4C[C@@H]43)c2)cn1` [Example 197, N-(3-((1R,5S,6R)-3-amino-5-(fluoromethyl)-2-oxa-4-azabicyclo[4.1.0]hept-3-en-5-yl)-4-fluorophenyl)-5-(prop-2-yn-1-yloxy)pyrazine-2-carboxamide], the half-maximal inhibitory concentration (IC50) in test [1] amounted to 0.0066 µM; on Cathepsin D (Cat D), 260 µM; on BACE it was 0.0023 µM.

Regarding `Cc1cc(Cl)cnc1C(=O)Nc1ccc(F)c([C@@]2(CF)N=C(N)O[C@@H]3C[C@@H]32)c1` [Example 198, N-(3-((1R,5S,6R)-3-amino-5-(fluoromethyl)-2-oxa-4-azabicyclo[4.1.0]hept-3-en-5-yl)-4-fluorophenyl)-5-chloro-3-methylpicolinamide], the values for the IC50 (in test [1]; on Cathepsin D (Cat D); on BACE) were 0.0338 µM, 349 µM and 0.0152 µM, respectively.

With `Cc1c(C(=O)Nc2ccc(F)c([C@@]3(CF)N=C(N)O[C@@H]4C[C@@H]43)c2)nc2ccc(Cl)cn12` [Example 200, N-(3-((1R,5S,6R)-3-amino-5-(fluoromethyl)-2-oxa-4-azabicyclo[4.1.0]hept-3-en-5-yl)-4-fluorophenyl)-6-chloro-3-methylimidazo[1,2-a]pyridine-2-carboxamide], the IC50 in test [1] came out at 0.189 µM; at Cathepsin D (Cat D), 465 µM; on BACE, 0.025 µM.

`NC1=N[C@](CF)(c2cc(NC(=O)c3cc4ccccc4cn3)ccc2F)[C@H]2C[C@H]2O1` [Example 202, N-(3-((1R,5S,6R)-3-amino-5-(fluoromethyl)-2-oxa-4-azabicyclo[4.1.0]hept-3-en-5-yl)-4-fluorophenyl) isoquinoline-3-carboxamide]: the half-inhibitory concentration (IC50) in test [1] was determined as 0.499 µM; at Cathepsin D (Cat D), 430 µM; against BACE, 0.159 µM.

In the case of `CC#CCOc1ccc(C(=O)Nc2ccc(F)c([C@@]3(CF)N=C(N)O[C@@H]4C[C@@H]43)c2)nc1` [Example 203, N-(3-((1R,5S,6R)-3-amino-5-(fluoromethyl)-2-oxa-4-azabicyclo[4.1.0]hept-3-en-5-yl)-4-fluorophenyl)-5-(but-2-yn-1-yloxy)picolinamide], the results for the IC50 (in test [1]; on Cathepsin D (Cat D); at BACE) were 0.0089 µM, 303 µM and 0.0039 µM, respectively.

With `N#Cc1ccc(C(=O)Nc2cnc(F)c([C@@]3(CF)N=C(N)O[C@@H]4C[C@@H]43)c2)nc1` [Example 204, N-(5-((1R,5S,6R)-3-amino-5-(fluoromethyl)-2-oxa-4-azabicyclo[4.1.0]hept-3-en-5-yl)-6-fluoropyridin-3-yl)-5-cyanopicolinamide], the IC50 in test [1] stood at 0.145 µM; at Cathepsin D (Cat D) it was 294 µM; on BACE it was 0.0335 µM.

On to `C#CCOc1cnc(C(=O)Nc2cnc(F)c([C@@]3(CF)N=C(N)O[C@@H]4C[C@@H]43)c2)cn1` [Example 206, N-(5-((1R,5S,6R)-3-amino-5-(fluoromethyl)-2-oxa-4-azabicyclo[4.1.0]hept-3-en-5-yl)-6-fluoropyridin-3-yl)-5-(prop-2-yn-1-yloxy)pyrazine-2-carboxamide], for which the results for the IC50 (in test [1]; on Cathepsin D (Cat D); against BACE) were 0.0094 µM, 311 µM and 0.0064 µM, respectively.

Turning to `NC1=N[C@](CF)(c2cc(NC(=O)c3nn(C(F)F)cc3Cl)cnc2F)[C@H]2C[C@H]2O1` [Example 207, N-(5-((1R,5S,6R)-3-amino-5-(fluoromethyl)-2-oxa-4-azabicyclo[4.1.0]hept-3-en-5-yl)-6-fluoropyridin-3-yl)-4-chloro-1-(difluoromethyl)-1H-pyrazole-3-carboxamide], the IC50 was found to be 0.0578 µM in test [1], 370 µM on Cathepsin D (Cat D) and 0.0176 µM against BACE.

As to `NC1=N[C@@](c2cc(NC(=O)c3ncc(Cl)cc3Cl)ccc2Cl)(C(F)F)[C@H]2C[C@H]2O1` [Example 211, N-(3-((1R,5S,6R)-3-amino-5-(difluoromethyl)-2-oxa-4-azabicyclo[4.1.0]hept-3-en-5-yl)-4-chlorophenyl)-3,5-dichloropicolinamide], the IC50 was 0.0126 µM in test [1], > 400 µM at Cathepsin D (Cat D) and 0.0147 µM at BACE.

Take `Cc1cc(OC(F)F)cnc1C(=O)Nc1ccc(Cl)c([C@@]2(C(F)F)N=C(N)O[C@@H]3C[C@@H]32)c1` [Example 212, N-(3-((1R,5S,6R)-3-amino-5-(difluoromethyl)-2-oxa-4-azabicyclo[4.1.0]hept-3-en-5-yl)-4-chlorophenyl)-5-(difluoromethoxy)-3-methylpicolinamide]: the IC50 was 0.0469 µM in test [1], 928 µM at Cathepsin D (Cat D) and 0.0385 µM at BACE.

With `Cc1cc(OC(F)F)cnc1C(=O)Nc1ccc(Cl)c([C@]2(C(F)F)N=C(N)O[C@H]3C[C@H]32)c1` [Example 213, N-(3-((1S,5R,6S)-3-amino-5-(difluoromethyl)-2-oxa-4-azabicyclo[4.1.0]hept-3-en-5-yl)-4-chlorophenyl)-5-(difluoromethoxy)-3-methylpicolinamide], the concentration for half-maximal inhibition (IC50) in test [1] turned out to be 2.42 µM; at Cathepsin D (Cat D) it was 1130 µM; on BACE it was 1.31 µM.

On to `NC1=N[C@@](c2cc(NC(=O)c3ccc(Br)cn3)ccc2Cl)(C(F)F)[C@H]2C[C@H]2O1` [Example 214, N-(3-((1R,5S,6R)-3-amino-5-(difluoromethyl)-2-oxa-4-azabicyclo[4.1.0]hept-3-en-5-yl)-4-chlorophenyl)-5-bromopicolinamide], for which the half-inhibitory concentration (IC50) in test [1] was determined as 0.0093 µM; at Cathepsin D (Cat D) it was 459 µM; against BACE it was 0.0132 µM.

`CC#CCOc1cnc(C(=O)Nc2ccc(Cl)c([C@@]3(C(F)F)N=C(N)O[C@@H]4C[C@@H]43)c2)cn1` [Example 215, N-(3-((1R,5S,6R)-3-amino-5-(difluoromethyl)-2-oxa-4-azabicyclo[4.1.0]hept-3-en-5-yl)-4-chlorophenyl)-5-(but-2-yn-1-yloxy)pyrazine-2-carboxamide]: the IC50 stood at 0.0017 µM in test [1], 1930 µM at Cathepsin D (Cat D) and 0.0043 µM against BACE.

Consider `Cc1cc(C(F)(F)F)cnc1C(=O)Nc1ccc(Cl)c([C@@]2(C(F)F)N=C(N)O[C@@H]3C[C@@H]32)c1` [Example 217, N-(3-((1R,5S,6R)-3-amino-5-(difluoromethyl)-2-oxa-4-azabicyclo[4.1.0]hept-3-en-5-yl)-4-chlorophenyl)-3-methyl-5-(trifluoromethyl) picolinamide], for which the half-inhibitory concentration (IC50) in test [1] was 0.0151 µM; on Cathepsin D (Cat D), 206 µM; against BACE, 0.0116 µM.
